Assays:
S. aureus mastitis = conditions: Oldham et al.; in words; cited from earlier work
S. aureus = test: Potentiation of lysostaphin bactericidal activity (minimum bactericidal concentration assay, survival of S. aureus); format: cell-based, Staphylococcus aureus; conditions: 18 h
Procedure: Preparation of 50% glycerol and 15% poloxamer 407 NF plus lysostaphin is as follows: The lysostaphin stock of 2.5 mg/mL is thawed and filtered through a 0.22μ filter. [formula]
In a similar fashion, triacetin solutions are also prepared.
Mueller-Hinton Broth containing lysostaphin is prepared as above. Penicillin in Mueller-Hinton Broth is prepared to serve as a control. Starting with a frozen 2.5 mg/mL stock solution the penicillin is diluted as follows: 400 μl of 2.5 mg/mL is placed in 600 μl of Mueller-Hinton Broth to yield a 1000 μg/mL solution. Added to 3744 μl of Mueller-Hinton Broth is 256 μl of the 1000 μg/mL solution to yield a 64 μg/mL solution.
Placed in sterile tubes are 2 mL of the vehicle and lysostaphin; Mueller-Hinton Broth plus lysostaphin; and Mueller-Hinton Broth plus penicillin. Serial two-fold dilutions are performed by hand using 1 mL of the appropriate vehicle as the diluent. Lysostaphin and penicillin dilutions range from 64 μg/mL to 0.25 μg/mL. All combinations are done in duplicate. The Staphylococcus aureus is grown for 5 hours in 5 mL of TSB and 0.1 mL is removed and placed in 9.9 mL of saline. Each tube is inoculated with 100 μl of the diluted culture. Plate counts are performed on the inoculum. All tubes are incubated for 18 hours at 37° C. with constant agitation. Following incubation, each dilution of lysostaphin in the vehicles or Mueller-Hinton Broth and penicillin in Mueller-Hinton Broth is diluted in phosphate buffered saline to 10^-2, 10^-4 and 10^-6.
Plated on a TSA with 10% sheep blood is 100 μl of the undilute and of each dilution. The plates are inverted and incubated for 18 hours. Following incubation, the number of colonies on each plate is counted.
The vehicles which inhibit the growth or are moderately bactericidal to S. aureus by themselves are unable to be evaluated using the MIC procedure. For these vehicles a minimum bactericidal concentration assay (MBC) is performed. This assay in conjunction with the previous MIC data distinguish bacteriostatic effects versus bactericidal effects of the vehicles. Various formulations are mixed with lysostaphin at a final concentration of 32 μg/mL. Ten, serial two- or four-fold dilutions of the lysostaphin are performed in the vehicle and each tube inoculated with a 2-6 x's 106 S. aureus CFU's (bacterial colony-forming units). Samples are removed after 18 hours and plated on blood agar plates.

[1] = tested on: Staphylococcus aureus (Newbould 305); test: Potentiation of lysostaphin bacteriostatic activity (minimum inhibitory concentration); format: cell-based; conditions: in saline, diluted in MHB
Procedure: Dissolved in 15% w/v poloxamer 407 NF is 512 μg/mL of lysostaphin by adding 487.4 μl of a 2.5 mg/mL aqueous solution to 1512.6 μl of the 15% w/v poloxamer 407 NF in sPBS. The lysostaphin is first filtered through a 0.22 μ filter and the concentration is adjusted (1.19 factor). The poloxamer 407 NF is mixed overnight and filtered through a 0.22μ cellulose acetate filter. In a similar fashion, preparations with other vehicles such as lysostaphin in triacetin are prepared.
Lysostaphin in Mueller-Hinton Broth is run as a control and a 512 μg/mL solution is prepared from the same 2.5 mg/mL solution as the poloxamer 407 NF mixture. Placed in 189 μl of Mueller-Hinton Broth is 61 μl of the 2.5 mg/mL solution.
Placed in the first well of a 12 well row is 100 μl of each mixture and serial two-fold dilutions are performed in Mueller-Hinton Broth through row 12. Following dilution, 50 μl of inoculum is added to each well. Inoculum is prepared by inoculating a tube of trypticase soy broth (TSB) from an overnight trypticase soy agar (TSA) culture containing a 10% sheep blood plate of Staphylococcus aureus (Newbould 305). The tube is incubated for 5 hours at 37° C. with constant agitation. […]
The inhibitory profile as measured by the reduction of the optical density at 650 nm in the presence of the vehicle is then compared to that of lysostaphin diluted in Mueller-Hinton Broth. […]

[2] = tested on: P388.D1 (Macrophage tumor cell line); test: in vitro; format: cell-based, murine
Procedure: (§1) Cell Lines: A20: B-cell tumor cell line 9C127: T-cell hybridoma cell line LB/62287: B-cell lymphoma cell line P388.D1: Macrophage tumor cell line
(§2) Cell lines (1×10^5 /well; >85% viability) are cultured in 24 well flat bottom plates in RPMI® medium (Gibco Laboratories, Grand Island, N.Y.) supplemented with 10% fetal calf serum, streptomycin (100 μg/mL) and penicillin (100 U/mL). Cultures are incubated (37° C., 10% CO2) with the following concentrations of vehicles:
(§3) c) 1.0%, 0.1% or 0.01% Triacetin or IMWITOR®
(§4) After a 72 hour or 6 hour incubation period, cells are harvested and counted by the Coulter Counter (Northwell Drive, England). Cell viability is determined using a Coulter Channelyzer.
(§5) The relative toxicity of the sample formulations to estimate the relative degree of toxicity for in vivo administration is carried out in vitro with the mammalian cell lines. Various concentrations of the vehicles are incubated for either 6 or 24 hours with the different mammalian cell lines. Immediate toxicity is evaluated at 6 hours by quantitating the number of dead cells in treated wells as compared to the untreated controls. Long term toxicity effects as well as effects which may inhibit cell growth are evaluated by measuring the relative degree of proliferation after an additional 48 hours incubation with ^3 H-thymidine.

[3] = tested on: A20 (B-cell tumor cell line); test: Toxicity of formulations on mammalian cell lines (cell viability, Coulter); format: cell-based, murine
Procedure: as §1, §2, §3, §4, §5

[4] = tested on: 9C127 (T-cell hybridoma cell line); test: as above; format: cell-based, murine
Procedure: as §1, §2, §3, §4, §5

[5] = lysostaphin (or penicillin) 1 μg/mL
[6] = lysostaphin (or penicillin) 4 μg/mL

Substance | Therapeutic efficacy compared with CEFA-LAK (S. aureus mastitis) | Survival of S. aureus CFU (Log 10) in Vehicles (S. aureus; lysostaphin 0.25 μg/mL) | Killing of S. aureus (footnote class) (S. aureus; lysostaphin 2 μg/mL) | Survival of S. aureus CFU (Log 10) in Vehicles (S. aureus; lysostaphin 2 μg/mL) | Killing of S. aureus (footnote class) (S. aureus; lysostaphin 8 μg/mL) | Survival of S. aureus CFU (Log 10) in Vehicles (S. aureus; lysostaphin (or penicillin) 0.5 μg/mL) | Killing of S. aureus (footnote class) (S. aureus; [5]) | Survival of S. aureus CFU (Log 10) in Vehicles (S. aureus; [5]) | Killing of S. aureus (footnote class) (S. aureus; [6]) | Survival of S. aureus CFU (Log 10) in Vehicles (S. aureus; [6]) | Survival of S. aureus CFU (Log 10) in Vehicles (S. aureus; lysostaphin (or penicillin) 8 μg/mL) | Control MIC of lysostaphin ([1]; control of the PLURONIC F127 line) | Control MIC of lysostaphin ([1]; control of the triacetin line) | Relative Toxicity at 6 Hours [2] | Relative Toxicity at 6 Hours [3] | Relative Toxicity at 6 Hours [4]
Lysostaphin: gene product of Staphylococcus simulans, enzymatically degrading the polyglycine crosslinks of the cell wall | not equivalent to the commercially available product CEFA-LAK® | 9.7 CFU (Log 10) | ^3 (Greater than 99.99% killing of S. aureus) | 3.6 CFU (Log 10) | ^3 (Greater than 99.99% killing of S. aureus) | 8.6 CFU (Log 10) | ^2 (Greater than 95% killing of S. aureus) | 8.1 CFU (Log 10) | ^3 (Greater than 99.99% killing of S. aureus) | 4.8 CFU (Log 10) | 3.3 CFU (Log 10) | 0.125 | 1.0 |  |  | 
PLURONIC ® F 127 |  |  |  |  |  |  |  |  |  |  |  |  |  | - | - | -

Source: patent publication US5342612A, “Compositions for the treatment of mammalian diseases” (priority 1991, dated 1994)
